Results published in US20220235051A1, “DI-FLUORO AZEPANES AS HBV CAPSID ASSEMBLY MODULATORS” (priority 2019, published 2022).

What follows are molecules tested on HBV (assay: HBV replication inhibition assay (BDNA assay) in HepG2.2.15 cells). Conditions: Hepatitis B virus, HepG2.2.15, 144 h, HepG2.2.15 cells, BDNA assay, encapsidated HBV DNA in supernatant at day 6; read-out: HepG2.2.15 EC50 HBV DNA.
Type: cell-based
Procedure: HBV replication inhibition by the disclosed compounds were determined in cells infected or transfected with HBV or cells with stably integrated HBV, such as HepG2.2.15 cells (Sells et al. 1987). In this example, HepG2.2.15 cells were maintained in cell culture medium containing 10% fetal bovine serum (FBS), Geneticin, L-glutamine, penicillin and streptomycin. HepG2.2.15 cells were seeded in 96-well plates at a density of 40,000 cells/well and were treated with serially diluted compounds at a final DMSO concentration of 0.5% either alone or in combination by adding drugs in a checker box format. Cells were incubated with compounds for three days, after which medium was removed and fresh medium containing compounds was added to cells and incubated for another three days. At day 6, supernatant was removed and treated with DNase at 37° C. for 60 minutes, followed by enzyme inactivation at 75° C. for 15 minutes. Encapsidated HBV DNA was released from the virions and covalently linked HBV polymerase by incubating in lysis buffer (Affymetrix QS0010) containing 2.5 μg proteinase K at 50° C. for 40 minutes. HBV DNA was denatured by addition of 0.2 M NaOH and detected using a branched DNA (BDNA) QuantiGene assay kit according to manufacturer recommendation (Affymetrix). HBV DNA levels were also quantified using qPCR, based on amplification of encapsidated HBV DNA extraction with QuickExtraction Solution (Epicentre Biotechnologies) and amplification of HBV DNA using HBV specific PCR probes that can hybridize to HBV DNA and a fluorescently labeled probe for quantitation. In addition, cell viability of HepG2.2.15 cells incubated with test compounds alone or in combination was determined by using CellTitre-Glo reagent according to the manufacturer protocol (Promega). The mean background signal from wells containing only culture medium was subtracted from all other samples, and percent inhibition at each compound concentration was calculated by normalizing to signals from HepG2.2.15 cells treated with 0.5% DMSO using equation E1.
% inhibition=(DMSOave−Xi)/DMSOave×100% E1
where DMSOave is the mean signal calculated from the wells that were treated with DMSO control (0% inhibition control) and Xi is the signal measured from the individual wells. EC50 values, effective concentrations that achieved 50% inhibitory effect, were determined by non-linear fitting using Graphpad Prism software (San Diego, Calif.) and equation E2.
Y=Ymin+(Ymax−Ymin)/(1+10(Log EC50−X)×HillSlope) E2
where Y represents percent inhibition values and X represents the logarithm of compound concentrations.
Selected disclosed compounds were assayed in the HBV replication assay (BDNA assay), as described above, and a representative group of these active compounds is shown in Table 3.

| SMILES | EC50 |
| --- | --- |
| C#CC1(O)CCC(F)(F)c2c3c(nn2C1)C[C@@H](C)N(C(=O)Nc1ccnc(C(F)F)c1F)C3 (single isomer, unassigned) [Example 97, (3R,8R*)-N-(2-(Difluoromethyl)-3-fluoropyridin-4-yl)-8-ethynyl-11,11-difluoro-8-hydroxy-3-methyl-3,4,8,9,10,11-hexahydro-1H-pyrido[4′,3′:3,4]pyrazolo[1,5-a]azepine-2(7H)-carboxamide] | 35 nM |
| C[C@@H]1Cc2nn3c(c2CN1C(=O)Nc1ccc(F)c(C#N)c1)C(F)(F)CC(O)CC3 (single isomer, unassigned) [Example 119, (3R,9S*)-N-(3-Cyano-4-fluorophenyl)-11,11-difluoro-9-hydroxyl-3-methyl-3,4,8,9,10,11-hexahydro-1H-pyrido[4′,3′:3,4]pyrazolo[1,5-a]azepine-2(7H)-carboxamide] | 1 nM |
| C[C@@H]1Cc2nn3c(c2CN1C(=O)Nc1ccnc(Br)c1F)C(F)=CC(O)CC3 (single isomer, unassigned) [Example 123, (3R,9R*)-N-(2-Bromo-3-fluoropyridin-4-yl)-11-fluoro-9-hydroxy-3-methyl-3,4,8,9-tetrahydro-1H-pyrido[4′,3′:3,4]pyrazolo[1,5-a]azepine-2(7H)-carboxamide] | 18 nM |
| C[C@@H]1Cc2nn3c(c2CN1C(=O)Nc1ccnc(Br)c1F)C(F)(F)CC(O)(CF)CC3 (single isomer, unassigned) [Example 127, (3R,9R*)-N-(2-Bromo-3-fluoropyridin-4-yl)-11,11-difluoro-9-(fluoromethyl)-9-hydroxy-3-methyl-3,4,8,9,10,11-hexahydro-1H-pyrido[4′,3′:3,4]pyrazolo[1,5-a]azepine-2(7H)-carboxamide] | 5 nM |
| C[C@@H]1Cc2nn3c(c2CN1C(=O)Nc1ccc(F)c(C#N)c1)C(F)(F)CC(O)(CF)CC3 (single isomer, unassigned) [Example 128, (3R,9R*)-N-(3-Cyano-4-fluorophenyl)-11,11-difluoro-9-(fluoromethyl)-9-hydroxy-3-methyl-3,4,8,9,10,11-hexahydro-1H-pyrido[4′,3′:3,4]pyrazolo[1,5-a]azepine-2(7H)-carboxamide] | 1 nM |
| O=C(Nc1ccnc(Br)c1F)N1CCc2nn3c(c2C1)C(F)(F)CC(CO)CC3 (single isomer, unassigned) [Example 133, (S*)-N-(2-Bromo-3-fluoropyridin-4-yl)-11,11-difluoro-9-(hydroxymethyl)-3,4,8,9,10,11-hexahydro-1H-pyrido[4′,3′:3,4]pyrazolo[1,5-a]azepine-2(7H)-carboxamide] | 38 nM |
| O=C(Nc1ccnc(Br)c1F)N1CCc2nn3c(c2C1)C(F)(F)CC(CO)CC3 (single isomer, unassigned) [Example 135, (R*)-N-(2-Bromo-3-fluoropyridin-4-yl)-11,11-difluoro-9-(hydroxymethyl)-3,4,8,9,10,11-hexahydro-1H-pyrido[4′,3′:3,4]pyrazolo[1,5-a]azepine-2(7H)-carboxamide] | 19 nM |
| C[C@@]1(O)CCC(F)(F)c2c3c(nn2C1)CCN(C(=O)Nc1ccc(F)c(C#N)c1)C3 (stereo in doubt) [Example 55, N-(3-Cyano-4-fluorophenyl)-11,11-difluoro-8-hydroxy-8-methyl-3,4,8,9,10,11-hexahydro-1H-pyrido[4′,3′:3,4]pyrazolo[1,5-a]azepine-2(7H)-carboxamide] | 29 nM |
| C=C1CCC(F)(F)c2c3c(nn2C1)CCN(C(=O)Nc1ccc(F)c(C#N)c1)C3 [Example 1, N-(3-Cyano-4-fluorophenyl)-11,11-difluoro-8-methylene-3,4,8,9,10,11-hexahydro-1H-pyrido[4′,3′:3,4]pyrazolo[1,5-a]azepine-2(7H)-carboxamide] | 44 nM |
| C=C1CCC(F)(F)c2c3c(nn2C1)CCN(C(=O)Nc1ccc(F)c(C(F)(F)F)c1)C3 [Example 2, 11,11-Difluoro-N-(4-fluoro-3-(trifluoromethyl)phenyl)-8-methylene-3,4,8,9,10,11-hexahydro-1H-pyrido[4′,3′:3,4]pyrazolo[1,5-a]azepine-2(7H)-carboxamide] | 51 nM |
| N#Cc1cc(NC(=O)N2CCc3nn4c(c3C2)C(F)(F)CC[C@H](O)C4)ccc1F [Example 3, (S)-N-(3-Cyano-4-fluorophenyl)-11,11-difluoro-8-hydroxy-3,4,8,9,10,11-hexahydro-1H-pyrido[4′,3′:3,4]pyrazolo[1,5-a]azepine-2(7H)-carboxamide] | 22 nM |
| O=C(Nc1ccc(F)c(C(F)(F)F)c1)N1CCc2nn3c(c2C1)C(F)(F)CC[C@H](O)C3 [Example 4, (S)-11,11-Difluoro-N-(4-fluoro-3-(trifluoromethyl)phenyl)-8-hydroxy-3,4,8,9,10,11-hexahydro-1H-pyrido[4′,3′:3,4]pyrazolo[1,5-a]azepine-2(7H)-carboxamide] | 37 nM |
| O=C(Nc1ccnc(Br)c1F)N1CCc2nn3c(c2C1)C(F)(F)CC[C@H](O)C3 [Example 5, (S)-N-(2-Bromo-3-fluoropyridin-4-yl)-11,11-difluoro-8-hydroxy-3,4,8,9,10,11-hexahydro-1H-pyrido[4′,3′:3,4]pyrazolo[1,5-a]azepine-2(7H)-carboxamide] | 57 nM |
| N#Cc1c(F)ccc(NC(=O)N2CCc3nn4c(c3C2)C(F)(F)CC[C@H](O)C4)c1F [Example 6, (S)-N-(3-Cyano-2,4-difluorophenyl)-11,11-difluoro-8-hydroxy-3,4,8,9,10,11-hexahydro-1H-pyrido[4′,3′:3,4]pyrazolo[1,5-a]azepine-2(7H)-carboxamide] | 44 nM |
| O=C(Nc1ccc(F)c(Br)c1F)N1CCc2nn3c(c2C1)C(F)(F)CC[C@H](O)C3 [Example 7, (S)-N-(3-Bromo-2,4-difluorophenyl)-11,11-difluoro-8-hydroxy-3,4,8,9,10,11-hexahydro-1H-pyrido[4′,3′:3,4]pyrazolo[1,5-a]azepine-2(7H)-carboxamide] | 31 nM |
| N#Cc1cc(NC(=O)N2CCc3nn4c(c3C2)C(F)(F)CC[C@@H](O)C4)ccc1F [Example 8, (R)-N-(3-Cyano-4-fluorophenyl)-11,11-difluoro-8-hydroxy-3,4,8,9,10,11-hexahydro-1H-pyrido[4′,3′:3,4]pyrazolo[1,5-a]azepine-2(7H)-carboxamide] | 10 nM |
| O=C(Nc1ccc(F)c(C(F)(F)F)c1)N1CCc2nn3c(c2C1)C(F)(F)CC[C@@H](O)C3 [Example 9, (R)-11,11-Difluoro-N-(4-fluoro-3-(trifluoromethyl)phenyl)-8-hydroxy-3,4,8,9,10,11-hexahydro-1H-pyrido[4′,3′:3,4]pyrazolo[1,5-a]azepine-2(7H)-carboxamide] | 28 nM |
| O=C(Nc1ccnc(Br)c1F)N1CCc2nn3c(c2C1)C(F)(F)CC[C@@H](O)C3 [Example 10, (R)-N-(2-Bromo-3-fluoropyridin-4-yl)-11,11-difluoro-8-hydroxy-3,4,8,9,10,11-hexahydro-1H-pyrido[4′,3′:3,4]pyrazolo[1,5-a]azepine-2(7H)-carboxamide] | 32 nM |
| N#Cc1c(F)ccc(NC(=O)N2CCc3nn4c(c3C2)C(F)(F)CC[C@@H](O)C4)c1F [Example 11, (R)-N-(3-Cyano-2,4-difluorophenyl)-11,11-difluoro-8-hydroxy-3,4,8,9,10,11-hexahydro-1H-pyrido[4′,3′:3,4]pyrazolo[1,5-a]azepine-2(7H)-carboxamide] | 24 nM |
| O=C(Nc1ccc(F)c(Br)c1F)N1CCc2nn3c(c2C1)C(F)(F)CC[C@@H](O)C3 [Example 12, (R)-N-(3-Bromo-2,4-difluorophenyl)-11,11-difluoro-8-hydroxy-3,4,8,9,10,11-hexahydro-1H-pyrido[4′,3′:3,4]pyrazolo[1,5-a]azepine-2(7H)-carboxamide] | 19 nM |
| N#Cc1cc(NC(=O)N2CCc3nn4c(c3C2)C(F)(F)CC[C@H](OCC(F)F)C4)ccc1F [Example 13, (S)-N-(3-Cyano-4-fluorophenyl)-8-(2,2-difluoroethoxy)-11,11-difluoro-3,4,8,9,10,11-hexahydro-1H-pyrido[4′,3′:3,4]pyrazolo[1,5-a]azepine-2(7H)-carboxamide] | 42 nM |
| N#Cc1cc(NC(=O)N2CCc3nn4c(c3C2)C(F)(F)CC[C@@H](OCC(F)F)C4)ccc1F [Example 14, (R)-N-(3-Cyano-4-fluorophenyl)-8-(2,2-difluoroethoxy)-11,11-difluoro-3,4,8,9,10,11-hexahydro-1H-pyrido[4′,3′:3,4]pyrazolo[1,5-a]azepine-2(7H)-carboxamide] | 51 nM |
